# Experimental data from publication PMC7876106 (Scientific Reports, 2021).
# What was measured:
# TERRA in LOX cells = assay: TERRA levels by RNA dot blot and Northern blot in LOX cells; format: cell-based, human
# G4 TeloDNA = assay: FP assay, compound binding to 5′ fluorescein-labeled TeloDNA
# Experimental: (§1) All the nucleic acids, peptides and chemicals were dissolved in buffer containing 20 mM HEPES pH7.5, 150 mM salt (KCl, NaCl, LiCl) at the stock concentration of 1 mM. For peptide and nucleic acid interactions, 25μL of each nucleic acids with a sequential twofold dilutions starting from 50 μM was added into each well of 96-well plate followed by adding 25μL of 10 nM FITC labeled TRF2 peptide. For compounds and nucleic acid interactions, 20μL of each compounds with a sequential twofold dilutions starting from 50 μM were added into each well of 96-well plate followed by adding 5μL of 20 ng/mL tRNA and 25μL of 10 nM FAM labeled nucleic acids. For inhibition assay, 5μL FITC labeled TRF2 GAR peptide (10 nM final concentration) and 10 μL oligos (5 μM final concentration) were mixed, followed by adding 5μL of each compound with a sequential twofold dilutions starting from 50 μM into each well of 384-well plate. All components were mixed thoroughly, and the plate was incubated at room temperature for 1 h before placing in an Envision Plate Reader for reading at 495/520 nm. All data curves were fitted using Prism 8.0.
# TERRA [1] = assay: FP assay, compound binding to 5′ fluorescein-labeled TERRA
# Experimental: as §1
# [2] = system: TeloDNA (5'-fluorescein) (DNA, G4) TTAGGGTTAGGGTTAGGGTTAGGG; assay: fluorescence polarization; conditions: 20 mM HEPES pH 7.5, room temperature; for binding: 150 mM salt (KCl, NaCl or LiCl; which not stated), tRNA competitor, dilutions from 50 μM compound
# [3] = system: TERRA (5'-fluorescein) (RNA, G4) UUAGGGUUAGGGUUAGGGUUAGGG; assay: fluorescence polarization; conditions: 20 mM HEPES pH 7.5, room temperature; for binding: 150 mM salt (KCl, NaCl or LiCl; which not stated), tRNA competitor, dilutions from 50 μM compound
# TERRA [4] = assay: FP assay, FITC labeled TRF2 peptide with TERRA; format: binding; conditions: 10 nM FITC peptide, read-out: EC50 (affinity), peptide binding to TERRA
# Experimental: as §1
# TeloDNA = assay: FP assay, FITC labeled TRF2 peptide with TeloDNA; format: binding; conditions: 10 nM FITC peptide, read-out: EC50 (affinity), peptide binding to TeloDNA
# Experimental: as §1
# antisense TERRA = assay: FP assay, FITC labeled TRF2 peptide with antisense TERRA; format: binding; conditions: 10 nM FITC peptide
# Experimental: as §1
# antisense TeloDNA = assay: FP assay, FITC labeled TRF2 peptide with antisense TeloDNA; format: binding; conditions: 10 nM FITC peptide
# Experimental: as §1
# EBNA1 G4 RNA = assay: FP assay, compound binding to EBNA1 G4 RNA
# Experimental: as §1
# [5] = system: telomere repeat DNA in LOX cells; assay: Telomere length analysis (PFGE, Southern blot) of LOX cells; format: cell-based, human; conditions: TLA
# Experimental: Genomic DNA was isolated from cells using a genomic DNA purification kit (Promega) and digested with AluI and MboI. Digested genomic DNA was purified by phenol/choloroform extraction and quantified using a Qubit 4 Fluorometer (Thermal Scientific). Equal amounts of digested DNA (5 μg) were separated by pulse-field gel electrophoresis (PFGE) performed with a 1% agarose gel at 6V/cm, switch times from 1 to 12s, 15 °C for 12h using CHEF-DRIII system (Bio-Rad). The DNA was transferred to GeneScreen Plus blotting membranes (Perkin-Elmer) and analyzed by Southern blot. The blots were hybridized with a 32P-labeled telomere repeat or […]
# Alu probe at 42 °C overnight, then washed twice for 5 min each with 0.2 M wash buffer (0.2 M Na2HPO4 pH 7.2, 1 mM EDTA, and 2% SDS) at room temperature and once for 10 min with 0.1 M wash buffer at 42°C. Relative telomere-repeat signals were determined by Typhoon 9410 Imager and ImageQuant TL software (GE Healthcare). Signal intensity represents the percentage decrease of average telomere signals relative to dox (-) or PP control. […]
# (§2) 100, 1 mM EDTA in 1x PBS) before immuno-staining. Primary antibodies were prepared in blocking solution at following dilutions: anti-53BP1 (1:500, IHC-00001; Bethyl Laboratories) and γH2AX (1:2,000, A300-081A; Bethyl Laboratories). After IF, cells were fixed in 4% paraformaldehyde in 1x PBS for 10 min, washed in 1x PBS, dehydrated in ethanol series (70%, 95%, 100%), and air-dried. Coverslips were denatured for 5 min at 80-85° C in hybridization mix [70% formamide, 10 mM Tris-HCl, pH 7.2, and 0.5% blocking solution (Roche)] containing telomeric PNA-Cy3-(CCCTAA)3 probe, and hybridization was continued for 2 hrs at room temperature in the dark moisturized chambers. Coverslips were washed twice for 15 min each with 70% formamide, 10 mM Tris-HCl (pH 7.2), and 0.1% BSA, and followed by three washes for 5 min each with 0.15 M NaCl, 0.1 M Tris-HCl (pH 7.2), and 0.08% Tween-20. Nuclei were counterstained with 0.1 µg/ml DAPI in blocking solution and coverslips mounted with VectorShield (Vector Laboratories). RNA FISH was performed as previously described 1.
# Images were captured with a 100x lens on a Nikon E600 Upright microscope (Nikon
# TERRA [6] = assay: CD spectroscopy of TERRA mixed with compound; conditions: 1:1 molar ratio, 150 mM KCl buffer
# Experimental: All nucleic acids were dissolved in buffer containing 20 mM HEPES pH7.5, 150 mM salt (KCl or LiCl), 20% PEG8000 at the concentration of 10 μM for experiments. A J-815 spectrometer equipped with a PFD-425S Peltier cell holder was used to measure CD spectra at 4 °C between 200 and 340 nm to determine the secondary structure content of various oligo constructs. The molar ellipticity was calculated and the plot was made using Excel.
# TeloDNA and TRF2 complex = assay: FP inhibition assay, TRF2 GAR binding to TeloDNA
# Experimental: as §1
# TERRA and TRF2 complex = assay: FP inhibition assay, TRF2 GAR binding to TERRA; conditions: FP
# Experimental: as §1
# [7] = system: TRF2 binding to telomere DNA; assay: DNA ChIP assay of TRF2 binding to telomere DNA in LOX cells; format: cell-based, human; conditions: 2 μM, 2 days
# Experimental: The lysates were sonicated, cleared by centrifugation, and supernatants were diluted 10 fold into IP Buffer (0.01% SDS, 1.1% Triton X-100, 1.2mM EDTA, 16.7mM Tris pH 8.1, 167mM NaCl, protease inhibitors cocktail, 50U/ml SUPERase•in) for IP reaction with rabbit IgG (Santa Cruz Biotechnology) or rabbit polyclonal anti-TRF2 (Pocono Rabbit Farm) at 4 ° C overnight. Each immune complex was collected by Dynal A beads (Invitrogen), washed five times (1 ml wash, 10 mins each) in ChIP related wash buffer at 4 ° C, eluted by addition of 200µl Elution buffer (10mM Tris, pH 8.0, 5mM EDTA, 1% SDS, 50U/ml SUPERase.In) at 70 °C for 20 mins, and the elutes were placed at 70 °C for 2 hrs to reverse cross-linking. […]
# DNA ChIP assays was performed as described previously 3 with minor modifications. Briefly, 1 x 10^7 LOX cells treated with indicated chemicals (2 µM) for 48 hrs were subject to ChIP analysis and immunoprecipitated DNA was assayed by DNA dot-blot using 32P-labeled (TTAGGG)4 or Alu probe. […]
# LOX cells = assay: TIF assay (IF FISH, γH2AX or 53BP1 with telomere DNA) in LOX cells; format: cell-based, human; conditions: 2 μM, 3 days
# Experimental: Mei et al, 2020 TERRA Requires TRF2 GAR Domain […]
# as §2, with “Indirect immunofluorescence (IF) combined with fluorescence in situ hybridization (FISH) analysis for telomere dysfunction was performed as described 4 with some modifications. Briefly, cells grown on coverslips were fixed for 15 min in 2% paraformaldehyde/1x PBS at RT, followed by permeabilization for 10 min in 1x PBS/0.5% Triton X-100 at RT. After washing with 1x PBS, cells were incubated for 60 min in blocking solution (0.5% BSA, 0.2% fish gelatin, 0.1% Triton X-100,” for “100,”
# Images were captured with a 100x lens on a Nikon E600 Upright microscope (Nikon […]
# Instruments, Inc., Melville, NY) with ImagePro Plus software (Media Cybernetics, Silver Spring, MD) for image processing. Cells with > 5 53BP1/γH2AX foci co-localizing with telomere DNA foci were scored as positive for TIF. The quantification was generated from at least three independent Immuno-FISH experiments. […]
# 0.1 μg/mL DAPI in 1x PBS and slides were mounted with VectorShield (Vector Laboratories).
# Images were taken with a 100x lens on a Nikon E600 Upright microscope (Nikon Instruments) using ImagePro Plus software (Media Cybernetics) for image processing. Statistical analysis was performed using two-tailed Student t Test.
# [8] = system: TERRA antisense (5'-fluorescein) (RNA, single strand) CCCUAACCCUAACCCUAACCCUAA; assay: fluorescence polarization; conditions: 150 mM salt (KCl, NaCl or LiCl; which not stated); 20 mM HEPES pH 7.5, room temperature, tRNA competitor; dilutions from 50 μM compound
# [9] = system: TeloDNA antisense (5'-fluorescein) (DNA, single strand) CCCTAACCCTAACCCTAACCCTAA; assay: fluorescence polarization; conditions: 150 mM salt (KCl, NaCl or LiCl; which not stated); 20 mM HEPES pH 7.5, room temperature, tRNA competitor; dilutions from 50 μM compound
# [10] = system: TERRA (unlabelled) (RNA, G4) UUAGGGUUAGGGUUAGGGUUAGGG; assay: fluorescence polarization, displacement of TRF2 GAR peptide; conditions: 150 mM salt (KCl, NaCl or LiCl; which not stated); 20 mM HEPES pH 7.5, room temperature; FITC-TRF2 GAR peptide 10 nM; 5 μM oligo; dilutions from 50 μM compound
# [11] = system: TeloDNA (unlabelled) (DNA, G4) TTAGGGTTAGGGTTAGGGTTAGGG; assay: as above; conditions: 150 mM salt (KCl, NaCl or LiCl; which not stated); 20 mM HEPES pH 7.5, room temperature; FITC-TRF2 GAR peptide 10 nM; 5 μM oligo; dilutions from 50 μM compound
# [12] = 10 nM fluorescein-labeled probe, 3 independent experiments
# [13] = 150 mM KCl, NaCl or LiCl (salt not specified), 20 mM HEPES, tRNA competitor added, 10 nM probe, apparent
compound,measurement,setting,value
"C[C@H]1c2cccc(O)c2C(=O)C2=C(O)[C@]3(O)C(=O)C(C(N)=O)=C(O)[C@@H](N(C)C)[C@@H]3[C@@H](O)[C@@H]21 [Dox, doxycycline]",effect of Dox treatment on TERRA,"TERRA in LOX cells; doxycycline 1 µg/ml, 2 days, RNA dot blot",no effect on TERRA
"COS(=O)(=O)[O-].Cc1cc2c3c([n+](C)c4ccc(F)cc4c3c1)-c1cc(F)ccc1N2C [RHPS4, acridinium methosulfate]",binding activity for G4 TeloDNA,G4 TeloDNA,only PDS bound
same,binding to TERRA,TERRA [1],only PDS bound
same,binding,[2],no
same,binding,[3],no
"RAAGRRASRSSGRARRGRHEPGLGGPAERGAGEAR [TRF2 GAR, 35-residue peptide containing the GAR domain of TRF2]",EC50,TERRA [4],2700 nM
same,EC50,TeloDNA,8900 nM
same,peptide binding to antisense TERRA,antisense TERRA,Neither TRF2 GAR nor the Ala mutant showed any detectable binding
same,peptide binding to antisense TeloDNA,antisense TeloDNA,Neither TRF2 GAR nor the Ala mutant showed any detectable binding
"NCCOc1cc(C(=O)Nc2cc(OCCN)c3ccccc3n2)nc(C(=O)Nc2cc(OCCN)c3ccccc3n2)c1 [PDS, pyridostatin]",EC50,G4 TeloDNA; [12],50 nM
same,EC50,TERRA [1]; [12],660 nM
same,EC50,EBNA1 G4 RNA,199 nM
same,binding to EBNA1 G4 RNA,EBNA1 G4 RNA,high binding affinity
same,total TERRA levels relative to PP control,"TERRA in LOX cells; 2 μM, 3 days, RNA dot blot and Northern blot",also reduced TERRA levels
same,telomere repeat DNA signals,[5],to a lesser extent
same,EC50,[2]; [13],50 nM
same,EC50,[3]; [13],660 nM
C[n+]1cc(NC(=O)c2ccc3ccc4ccc(C(=O)Nc5cc6ccccc6[n+](C)c5)nc4c3n2)cc2ccccc21 [Phen-DC3],binding activity for G4 TeloDNA,G4 TeloDNA,only PDS bound
same,binding to TERRA,TERRA [1],only PDS bound
same,binding,[2],no
same,binding,[3],no
"C=CC1=C(C)c2cc3[nH]c(cc4nc(cc5[nH]c(cc1n2)c(C)c5CCC(=O)O)C(CCC(=O)O)=C4C)c(C)c3C=C [PP, protoporphyrin IX]",binding activity for G4 TeloDNA,G4 TeloDNA,no binding activity
same,binding to TERRA,TERRA [1],no measurable affinity
same,binding to EBNA1 G4 RNA,EBNA1 G4 RNA,did not display any binding
same,alteration of CD spectrum of TERRA at major peak (~260 nm),TERRA [6],not BRACO-19 or PP altered the CD spectrum
same,IC50 for TRF2 GAR-TeloDNA,TeloDNA and TRF2 complex,no measurable IC50
same,IC50 for TRF2 GAR-TERRA,TERRA and TRF2 complex,no measurable IC50
same,effect on TRF2 binding to telomere DNA,[7],"Neither NMM, PP, nor BRACO-19 had any significant effect"
same,accumulation of TERRA as a shorter form,"TERRA in LOX cells; 2 μM, 3 days, Northern blot",not observed
same,level of γH2AX or 53BP1 associated telomere dysfunction-induced foci (TIFs),LOX cells,equivalent to background
same,binding,[2],no
same,binding,[3],no
same,binding,[8],no
same,binding,[9],no
same,binding,[10],no
same,binding,[11],no
